For this test, the system named is MelanoDerm in vitro skin model (MEL-300B melanoderms). In words: In vitro skin model test (MelanoDerm, MatTek), skin-lightening effect by digital image quantification. The test is classed as cell-based. The conditions noted are these: for lightening / pixel density (untreated set at 1.00): 14 days, MEL-300B. The procedure: The skin-lightening effect was validated on the in vitro skin model, the MelanoDerm™ carried out by MatTek using MEL-300B melanoderms. This model is very similar in structure and function to the natural skin and has the cell types relevant in the epidermis including the melanocytes, which are responsible for the synthesis of the main pigment melanin. Further information can be found, for example, in http://www.mattek.com/pages/in_vitro_basics. The study was carried out over a period of 14 days at two concentrations of 2,3-dimethylnaphthalene-1,4-dione, 10 μM and 60 μM. 1% Kojic acid was the positive standard and untreated as negative control.
Digital image quantification was achieved by subtracting a standard background value from the pixel content of regions of identical size. The pixel content of untreated cells was set at 1.00. Treatment with topical 1% kojic acid as a positive control gave pixel density of 0.96, or 4% lightening. Treatment with 2,3-dimethylnaphthalene-1,4-dione gave pixel density of 0.66 or 34% lightening at a concentration of 10 μM and 0.38 or 62% lightening at a concentration of 60 μM.

[1] abbreviates: topical 1% kojic acid, positive control.

This is an account of results in patent US20100029784A1, “NAPHTHOQUINONE COMPOSITIONS WITH ANTI-AGING, ANTI-INFLAMMATORY AND SKIN EVEN-TONING PROPERTIES” (priority 2008, published 2010).

`CC1=C(C)C(=O)c2ccccc2C1=O` [2,3-dimethylnaphthalene-1,4-dione]: the “effectiveness relative to the kojic acid positive standard” value reads like this: (concentration of 10 μM vs 1% kojic acid) “about ten times as effective”; (concentration of 60 μM vs 1% kojic acid) “about fifteen times as effective”. Also, the lightening (concentration of 10 μM) was 34% and the lightening (concentration of 60 μM) is given as 62%. Moreover, the “pixel density (untreated set at 1.00)” value runs as follows: (concentration of 10 μM) 0.66; (concentration of 60 μM) 0.38.

For the compound `O=c1cc(CO)occ1O` [kojic acid, Kojic acid, reference compound], under setting [1], the lightening stood at 4% and the “pixel density (untreated set at 1.00)” value turned out to be 0.96.
